Experimental data reported in PubChem BioAssay AID2060883 (Molecular Pharmacology Branch, DTP, NCI, 2025).

Test system: 843782-103-R-J1-PDC complex spheroid viability
Test: Anticancer human tumor 843782-103-R-J1-PDC patient-derived lung adenocarcinoma cell line growth inhibition [RAS]
Settings: for IC50: curve of first compound; for viability, T/C: stronger effect = lower value
Outline: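 Tumour cells grown as complex spheroids with HUVEC endothelial cells and mesenchymal stem cells, treated with RAS pathway inhibitor combinations. Each agent spans half-log steps from near clinical Cmax, or 10 microM where Cmax is unknown.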

[1] = second compound 0.000949 µM, first compound 0.0316 µM
[2] = second compound 0.000949 µM, first compound 0.1 µM
[3] = second compound 0.000949 µM, first compound 0.316 µM
[4] = second compound 0.000949 µM, first compound 1 µM
[5] = second compound 0.003 µM, first compound 0.0316 µM
[6] = second compound 0.003 µM, first compound 0.1 µM
[7] = second compound 0.003 µM, first compound 0.316 µM
[8] = second compound 0.003 µM, first compound 1 µM
[9] = second compound 0.00949 µM, first compound 0.0316 µM
[10] = second compound 0.00949 µM, first compound 0.1 µM
[11] = second compound 0.00949 µM, first compound 0.316 µM
[12] = second compound 0.00949 µM, first compound 1 µM
[13] = second compound 0.03 µM, first compound 0.0316 µM
[14] = second compound 0.03 µM, first compound 0.1 µM
[15] = second compound 0.03 µM, first compound 0.316 µM
[16] = second compound 0.03 µM, first compound 1 µM
[17] = second compound 0.0949 µM, first compound 0.0316 µM
[18] = second compound 0.0949 µM, first compound 0.1 µM
[19] = second compound 0.0949 µM, first compound 0.316 µM
[20] = second compound 0.0949 µM, first compound 1 µM
[21] = second compound 0.3 µM, first compound 0.0316 µM
[22] = second compound 0.3 µM, first compound 0.1 µM
[23] = second compound 0.3 µM, first compound 0.316 µM
[24] = second compound 0.3 µM, first compound 1 µM
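Further: viability read after seven days of compound exposure.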

Q: Which results are given for `C=CC(=O)N1CCN(c2nc(OCC3CCCN3C)nc3c(F)c(-c4nc(N)cc(C)c4C(F)(F)F)c(Cl)cc23)C(C)C1` (centres undefined) + CCn1c(-c2cccnc2C(C)OC)c2c3cc(ccc31)N1CCOC(CC(NC(=O)C(C(C)C)N(C)C(=O)C3(F)CCN(C(=O)C#CC(C)(C)N(C)C)CC3)C(=O)N3CCCC(N3)C(=O)OCC(C)(C)C2)C1?
A: IC50 (second compound 0.000949 µM): > 1000 nM; IC50 (second compound 0.003 µM): > 1000 nM; IC50 (second compound 0.00949 µM): > 1000 nM; IC50 (second compound 0.03 µM): > 1000 nM; IC50 (second compound 0.0949 µM): > 1000 nM; IC50 (second compound 0.3 µM): > 1000 nM; viability, T/C (second compound 0.000949 µM, first compound 0.00316 µM): 80.5%; viability, T/C (second compound 0.000949 µM, first compound 0.01 µM): 67.2%; viability, T/C [1]: 75.9%; viability, T/C [2]: 77.9%; viability, T/C [3]: 72.8%; viability, T/C [4]: 78.5%; viability, T/C (second compound 0.003 µM, first compound 0.00316 µM): 71.4%; viability, T/C (second compound 0.003 µM, first compound 0.01 µM): 69.3%; viability, T/C [5]: 77.7%; viability, T/C [6]: 81.6%; viability, T/C [7]: 78.3%; viability, T/C [8]: 74.4%; viability, T/C (second compound 0.00949 µM, first compound 0.00316 µM): 63.6%; viability, T/C (second compound 0.00949 µM, first compound 0.01 µM): 62.4%; viability, T/C [9]: 77.5%; viability, T/C [10]: 80.1%; viability, T/C [11]: 88.1%; viability, T/C [12]: 74.4%; viability, T/C (second compound 0.03 µM, first compound 0.00316 µM): 82.4%; viability, T/C (second compound 0.03 µM, first compound 0.01 µM): 71.6%; viability, T/C [13]: 71.5%; viability, T/C [14]: 75.4%; viability, T/C [15]: 82.5%; viability, T/C [16]: 69.4%; viability, T/C (second compound 0.0949 µM, first compound 0.00316 µM): 81.6%; viability, T/C (second compound 0.0949 µM, first compound 0.01 µM): 75.9%; viability, T/C [17]: 77.6%; viability, T/C [18]: 79.7%; viability, T/C [19]: 77.7%; viability, T/C [20]: 77%; viability, T/C (second compound 0.3 µM, first compound 0.00316 µM): 65.4%; viability, T/C (second compound 0.3 µM, first compound 0.01 µM): 69.2%; viability, T/C [21]: 61.2%; viability, T/C [22]: 70.7%; viability, T/C [23]: 68%; viability, T/C [24]: 69.6%

Q: Which results are given for `CC(C)NCC(C(=O)N1CCN(c2ncnc3c2C(C)CC3O)CC1)c1ccc(Cl)cc1` (centres undefined) + CCn1c(-c2cccnc2C(C)OC)c2c3cc(ccc31)N1CCOC(CC(NC(=O)C(C(C)C)N(C)C(=O)C3(F)CCN(C(=O)C#CC(C)(C)N(C)C)CC3)C(=O)N3CCCC(N3)C(=O)OCC(C)(C)C2)C1?
A: IC50 (second compound 0.000949 µM): 287 nM; IC50 (second compound 0.003 µM): 325 nM; IC50 (second compound 0.00949 µM): 402 nM; IC50 (second compound 0.03 µM): 309 nM; IC50 (second compound 0.0949 µM): 403 nM; IC50 (second compound 0.3 µM): 174 nM; viability, T/C [1]: 74.5%; viability, T/C [2]: 68.8%; viability, T/C [3]: 48.5%; viability, T/C [4]: 19.6%; viability, T/C (second compound 0.000949 µM, first compound 3.16 µM): 10.8%; viability, T/C (second compound 0.000949 µM, first compound 10 µM): 4.86%; viability, T/C [5]: 74.1%; viability, T/C [6]: 71.3%; viability, T/C [7]: 47.5%; viability, T/C [8]: 30%; viability, T/C (second compound 0.003 µM, first compound 3.16 µM): 12.4%; viability, T/C (second compound 0.003 µM, first compound 10 µM): 7.3%; viability, T/C [9]: 68.2%; viability, T/C [10]: 65.3%; viability, T/C [11]: 55.9%; viability, T/C [12]: 30%; viability, T/C (second compound 0.00949 µM, first compound 3.16 µM): 13.9%; viability, T/C (second compound 0.00949 µM, first compound 10 µM): 4.79%; viability, T/C [13]: 72.9%; viability, T/C [14]: 66%; viability, T/C [15]: 50.5%; viability, T/C [16]: 24.8%; viability, T/C (second compound 0.03 µM, first compound 3.16 µM): 13.8%; viability, T/C (second compound 0.03 µM, first compound 10 µM): 6.84%; viability, T/C [17]: 70.8%; viability, T/C [18]: 66.3%; viability, T/C [19]: 56.9%; viability, T/C [20]: 27.1%; viability, T/C (second compound 0.0949 µM, first compound 3.16 µM): 11.5%; viability, T/C (second compound 0.0949 µM, first compound 10 µM): 5.05%; viability, T/C [21]: 63.4%; viability, T/C [22]: 60%; viability, T/C [23]: 39.8%; viability, T/C [24]: 23.2%; viability, T/C (second compound 0.3 µM, first compound 3.16 µM): 11.3%; viability, T/C (second compound 0.3 µM, first compound 10 µM): 5.97%
